# From article PMC10584170, “Machine learning-based phenotypic imaging to characterise the targetable biology of Plasmodium falciparum male gametocytes for the development of transmission-blocking antimalarials” (PLOS Pathogens, 2023)
# Like-named read-outs stand apart in the source and are kept apart here.
# Experiments:
# [1] = test system: P. falciparum male gametocytes; assay: P. falciparum Dual Gamete Formation Assay (PfDGFA), male readout (exflagellation); type: cell-based, Plasmodium falciparum NF54; details: for Selectivity Ratio M: HepG2 Tox50 versus male IC50; for Average inhibition male (%) / % inhibition male (individual replicates) R1 / % inhibition male (individual replicates) R3 / % inhibition male (individual replicates) R4: 24h preincubation with gametocytes; for Average inhibition male (%): average of replicates; for % inhibition male (individual replicates) R1: replicate R1; for % inhibition male (individual replicates) R3: replicate R3; for % inhibition male (individual replicates) R4: replicate R4; for IC50: read-out: Male IC50; for HitlevelM: number of replicates with >50% inhibition in the male readout
# Procedure, shortened: (§1)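 Male and female gamete formation were quantified by microscopy image analysis following 24 h incubation of mature NF54 gametocytes with compound and activation at 28°C with xanthurenic acid.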
# [2] = test system: P. falciparum female gametocytes; assay: P. falciparum Dual Gamete Formation Assay (PfDGFA), female readout (Pfs25-positive female gametes); type: cell-based, Plasmodium falciparum NF54; details: for Selectivity ratio F: HepG2 Tox50 versus female IC50; for Average inhibition female (%) / % inhibition female (individual replicates) R1 / % inhibition female (individual replicates) R3 / % inhibition female (individual replicates) R4: 24h preincubation with gametocytes; for Average inhibition female (%): average of replicates; for % inhibition female (individual replicates) R1: replicate R1; for % inhibition female (individual replicates) R3: replicate R3; for % inhibition female (individual replicates) R4: replicate R4; for IC50: read-out: Female IC50; for HitlevelF: number of replicates with >50% inhibition in the female readout
# Procedure, shortened: as §1
# [3] = test system: HepG2 cells; assay: HepG2 cytotoxicity counter-screen; details: cytotoxic activity against HepG2 cells
# [4] = PfDGFA, 24 h incubation with gametocytes before induction, exflagellation readout
# [5] = PfDGFA, 24 h incubation with gametocytes before induction, female gamete readout
# [6] = Plasmodium falciparum, read-out: % inhibition male (individual replicates) R1
# [7] = Plasmodium falciparum, read-out: % inhibition male (individual replicates) R2
# [8] = Plasmodium falciparum, read-out: % inhibition male (individual replicates) R4
# [9] = Plasmodium falciparum, read-out: Average inhibition male (%)
# [10] = Plasmodium falciparum, read-out: % inhibition female (individual replicates) R1
# [11] = Plasmodium falciparum, read-out: % inhibition female (individual replicates) R2
# [12] = Plasmodium falciparum, read-out: % inhibition female (individual replicates) R3
# [13] = Plasmodium falciparum, read-out: % inhibition female (individual replicates) R4
# [14] = Plasmodium falciparum, read-out: Average inhibition female (%)
Structure (SMILES),Selectivity Ratio M [1],"IC50 [1, 4] [nM]",Selectivity ratio F [2],"IC50 [2, 5] [nM]",Tox50 [3] [µM],Average inhibition male (%) ([1]; 2µM),% inhibition male (individual replicates) R1 ([1]; 2µM) [%],% inhibition male (individual replicates) R4 ([1]; 2µM) [%],Average inhibition female (%) ([2]; 2µM),% inhibition female (individual replicates) R1 ([2]; 2µM) [%],% inhibition female (individual replicates) R3 ([2]; 2µM) [%],% inhibition female (individual replicates) R4 ([2]; 2µM) [%],% inhibition male (individual replicates) R3 ([1]; 2µM) [%],also measured
C=CCOc1ccc2ccccc2c1CNCCCCCCNCc1c(OCC=C)ccc2ccccc12.CS(=O)(=O)O [TCMDC-137340],1.99,1930,1.38,2790,3.85,,,,,,,,,Average inhibition male (%) ([1]; PfDGFA at 2µM): 87.7%; % inhibition male (individual replicates) R1 ([1]; PfDGFA at 2µM): 90.7%; % inhibition male (individual replicates) R3 ([1]; PfDGFA at 2µM): 68.3%; % inhibition male (individual replicates) R4 ([1]; PfDGFA at 2µM): 95.6%; HitlevelM ([1]; 2µM): 4; Average inhibition female (%) ([2]; PfDGFA at 2µM): 45.4%; % inhibition female (individual replicates) R1 ([2]; PfDGFA at 2µM): 35.2%; % inhibition female (individual replicates) R3 ([2]; PfDGFA at 2µM): 31.1%; % inhibition female (individual replicates) R4 ([2]; PfDGFA at 2µM): 51.0%; HitlevelF ([2]; 2µM): 2
Cl.N=C(NCCCCC1CCCCC1)c1cccc(C(=N)NCCCCC2CCCCC2)n1 [TCMDC-137452],2.02,1320,1.43,1860,2.66,99.3,93.4,104.5,47.7,57.8,31.9,45.9,,
COc1cc(CNCCCCCCNCc2cc(OC)c3ccccc3c2OC)c(OC)c2ccccc12.CS(=O)(=O)O [TCMDC-137502],3.09,1210,1.24,3030,3.76,,,,,,,,,Average inhibition male (%) ([1]; PfDGFA at 2µM): 85.1%; % inhibition male (individual replicates) R1 ([1]; PfDGFA at 2µM): 95.4%; % inhibition male (individual replicates) R3 ([1]; PfDGFA at 2µM): 87.5%; % inhibition male (individual replicates) R4 ([1]; PfDGFA at 2µM): 90.2%; HitlevelM ([1]; 2µM): 4; Average inhibition female (%) ([2]; PfDGFA at 2µM): 71.8%; % inhibition female (individual replicates) R1 ([2]; PfDGFA at 2µM): 79.7%; % inhibition female (individual replicates) R3 ([2]; PfDGFA at 2µM): 78.6%; % inhibition female (individual replicates) R4 ([2]; PfDGFA at 2µM): 84.0%; HitlevelF ([2]; 2µM): 3
Clc1ccc(/N=C(/NCCCCCCCN/C(=N\c2ccc(Cl)cc2)Nc2ccc(Cl)cc2)Nc2ccc(Cl)cc2)cc1 [TCMDC-137529],2.06,1120,1.6,1440,2.3,95.0,95.9,94.9,51.0,61.8,39.3,54.5,,
CCCCCCC(N)c1ccc(OCCCOc2ccc(C(N)CCCCCC)cc2)cc1.Cl (stereo not shown) [TCMDC-137621],3.34,1070,2.08,1710,3.56,94.3,98.4,99.6,47.1,37.5,53.9,41.4,82.0,
CC(CO)(CO)NCc1cc2c3ccccc3c(CNC(C)(CO)CO)cc2c2ccccc12.CS(=O)(=O)O [TCMDC-137752],14.99,,2.72,,13.04,,,,,,,,,"IC50 ([1]; Plasmodium falciparum, 24 h): 870 nM; inhibition at 2 µM [1, 6]: 93.1%; inhibition at 2 µM [1, 7]: 93.5%; inhibition at 2 µM ([1]; Plasmodium falciparum, read-out: % inhibition male (individual replicates) R3): 85.5%; inhibition at 2 µM [1, 8]: 90.9%; inhibition at 2 µM [1, 9]: 90.8%; IC50 ([2]; Plasmodium falciparum, 24 h): 4790 nM; inhibition at 2 µM [2, 10]: 37.9%; inhibition at 2 µM [2, 11]: 48.4%; inhibition at 2 µM [2, 12]: 18.2%; inhibition at 2 µM [2, 13]: 48.2%; inhibition at 2 µM [2, 14]: 38.2%"
CCOc1c(CCNCCCCNCCc2ccc3ccccc3c2OCC)ccc2ccccc12.CS(=O)(=O)O [TCMDC-137759],2.62,1310,1.48,2330,3.44,92.2,95.9,100.2,82.4,86.3,88.2,86.8,97.8,
CS(=O)(=O)O.CSc1ccc2ccccc2c1CCNCCCCNCCc1c(SC)ccc2ccccc12 [TCMDC-137763],2.67,1400,1.79,2080,3.73,90.7,94.6,98.9,55.5,47.6,28.5,71.9,73.0,
CCC1=C[C@@H]2CN(C1)Cc1c([nH]c3ccccc13)[C@@](C(=O)OC)(c1cc3c(cc1OC)N(C)[C@H]1[C@@](O)(C(=O)OC)[C@H](O)[C@]4(CC)C=CCN5CC[C@]31[C@@H]54)C2.O=S(=O)(O)O [TCMDC-137769],5697.96,,5.57,,55.68,,,,,,,,,"IC50 ([1]; Plasmodium falciparum, 24 h): 10 nM; inhibition at 2 µM [1, 6]: 101%; inhibition at 2 µM [1, 7]: 99.3%; inhibition at 2 µM [1, 8]: 103%; inhibition at 2 µM [1, 9]: 101%; IC50 ([2]; Plasmodium falciparum, 24 h): > 10000 nM; inhibition at 2 µM [2, 10]: 4.8%; inhibition at 2 µM [2, 11]: -7.3%; inhibition at 2 µM [2, 12]: 2.7%; inhibition at 2 µM [2, 13]: 9.5%; inhibition at 2 µM [2, 14]: 2.4%"
CC(=NNC(=S)NC(C)(C)C)c1ccccn1 [TCMDC-137783],0.9,110,0.11,970,0.1,101.1,99.9,104.2,58.4,41.7,38.4,72.1,98.6,
COc1ccc2ccc(OC)c(CNCCCCCCNCc3c(OC)ccc4ccc(OC)cc34)c2c1.CS(=O)(=O)O [TCMDC-137796],2.84,1430,1.12,3650,4.07,93.5,89.3,102.2,38.4,29.7,9.8,40.9,82.0,
